The values below come from patent US20080175801A1, “Stable peroxide containing personal care compositions” (The Procter & Gamble Company, priority 2007, published 2008).

Read-outs that look alike come from different tables or passages of the source.

The series can be described thus: Accelerated stability of flavor components in peroxide mouthrinse, measured by gas chromatography. In kind it is physicochemical. To be noted: for % Reduction at day 17, Formula IA / % Reduction at day 31, Formula IA: Formula IA with Glass H polyphosphate radical scavenger; for % Reduction at day 17, Formula IA / % Reduction at day 31, Formula IA / % Reduction at day 17, Formula IB / % Reduction at day 31, Formula IB / % Reduction at day 17, Treated / % Reduction at day 31, Treated / % Reduction at day 17, Untreated / % Reduction at day 31, Untreated: component at 0.005%; for % Reduction at day 17, Formula IB / % Reduction at day 31, Formula IB: no radical scavenger, not treated to remove metals; for % Reduction at day 17, Treated / % Reduction at day 31, Treated: formulation IB treated with polymer supported chelant; for % Reduction at day 17, Treated / % Reduction at day 31, Treated / % Reduction at day 17, Untreated / % Reduction at day 31, Untreated: vs day 0; for % Reduction at day 17, Untreated / % Reduction at day 31, Untreated: formulation IB untreated. As for the experimental part: The stability of the present compositions was assessed by measuring any changes in levels of peroxide, active component (cetylpyridinium chloride) and flavor components under storage conditions at 40° C. and 75% Relative Humidity.
A flavor mix consisting of Ethylbutyrate, Limonene, Decanal, Methylsalicylate, Carvone and Anethole (each flavor component at 0.005%) was added to the compositions. The resulting mouthrinse formulations were packaged in 500 ml PET bottles and placed on accelerated stability test chamber at 40° C. and 75% Relative Humidity conditions. The amount of peroxide in the samples was measured using the method described above and no significant changes were detected. However, radical activity was greater in the untreated sample vs. the treated sample as evidenced in greater degradation of flavor components in the untreated sample. The amount of each flavor component at time 0, 17 and 31 days was evaluated by gas chromatography (GC). Results are summarized in Table 2 below showing % reduction of each component and total flavor at days 17 and 31 from day 0. […] The treatment also […].
Formulation IA with Glass H polyphosphate as radical scavenger was compared with a sample of formulation IB (no radical scavenger) that was not treated to remove metals. […] The resulting mouthrinse formulations were packaged in 500 ml PET bottles and placed on accelerated stability test chamber at 40° C. and 75% Relative Humidity. The amount of each flavor component at time 0, 17 and 31 days were measured by gas chromatography (GC).

Take `C=C(C)C1CC=C(C)C(=O)C1` (stereo not drawn) [Carvone]: under “40° C., 75% RH”, the “% Reduction at day 17, Formula IA” value came to 50%; the “% Reduction at day 31, Formula IA” value was 50%; the “% Reduction at day 17, Formula IB” value is recorded as 20%; the “% Reduction at day 31, Formula IB” value is listed as 20%. Also, where the note is “40° C., 75% RH”, the “% Reduction at day 17, Treated” value is given as 20%; the “% Reduction at day 31, Treated” value was found to be 20%; the “% Reduction at day 17, Untreated” value turned out to be 20%; the “% Reduction at day 31, Untreated” value stood at 20%.
In the case of `CC=Cc1ccc(OC)cc1` [Anethole], the “Effect of polyphosphate radical scavenger on stability of flavor component” value (“Effect” for short) was “increased stability” and the “Stability of flavor component in the presence of peroxide” value (from here on “Stability … of peroxide”) is “significant decomposition”. Where the note is “40° C., 75% RH”, the “% Reduction at day 17, Formula IA” value is 60%; the “% Reduction at day 31, Formula IA” value came out at 80%; the “% Reduction at day 17, Formula IB” value came out at 100%; the “% Reduction at day 31, Formula IB” value worked out at 100%. Besides, for the setting “40° C., 75% RH”, the “% Reduction at day 17, Treated” value amounted to 60%; the “% Reduction at day 31, Treated” value was determined as 80%; the “% Reduction at day 17, Untreated” value came out at 100%; the “% Reduction at day 31, Untreated” value came out at 100%.
Turning to `CCCCCCCCCC=O` [Decanal], the “Effect” value is listed as “increased stability” and the “Stability … of peroxide” value is “significant decomposition”. Further, for the setting “40° C., 75% RH”, the “% Reduction at day 17, Formula IA” value is 20%; the “% Reduction at day 31, Formula IA” value came out at 40%; the “% Reduction at day 17, Formula IB” value came out at 80%; the “% Reduction at day 31, Formula IB” value is 80%. Besides, where the note is “40° C., 75% RH”, the “% Reduction at day 17, Treated” value is 25%; the “% Reduction at day 31, Treated” value is 75%; the “% Reduction at day 17, Untreated” value is listed as 80%; the “% Reduction at day 31, Untreated” value came to 80%.
`COC(=O)c1ccccc1O` [Methylsalicylate]: the “Stability … of peroxide” value is recorded as “relatively stable”.
Consider `CCCC(=O)OCC` [Ethylbutyrate], for which the “Effect” value is on record as “increased stability”. Besides, for the setting “40° C., 75% RH”, the “% Reduction at day 17, Formula IA” value is 0%; the “% Reduction at day 31, Formula IA” value is 0%; the “% Reduction at day 17, Formula IB” value is 20%; the “% Reduction at day 31, Formula IB” value came to 20%. In addition, under “40° C., 75% RH”, the “% Reduction at day 17, Treated” value came to 25%; the “% Reduction at day 31, Treated” value amounted to 25%; the “% Reduction at day 17, Untreated” value is 20%; the “% Reduction at day 31, Untreated” value is given as 20%.
On to `C=C(C)[C@H]1CC=C(C)CC1` [Limonene], for which, under “40° C., 75% RH”, the “% Reduction at day 17, Formula IA” value was 25%; the “% Reduction at day 31, Formula IA” value was found to be 25%; the “% Reduction at day 17, Formula IB” value came to 100%; the “% Reduction at day 31, Formula IB” value is recorded as 100%. Also, under “40° C., 75% RH”, the “% Reduction at day 17, Treated” value is 75%; the “% Reduction at day 31, Treated” value was determined as 75%; the “% Reduction at day 17, Untreated” value was 100%; the “% Reduction at day 31, Untreated” value stood at 100%. Moreover, the “Effect” value (in words, formulation IA vs untreated IB, 40° C., 75% RH) is given as “increased stability”. For the same molecule, the “Stability … of peroxide” value (in words, formulation IB, 40° C., 75% RH) was “significant decomposition”.
